Results: PubChem BioAssay (NCI)
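Method: 48-hour compound exposure of cells in 96-well plates, five concentrations, linear interpolation of endpoints. TGI is the concentration that stops growth completely.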

Assays:
Test in all cases: growth of human tumour cells (NCI), 48 h
CCRF-CEM leukemia = system: CCRF-CEM leukemia
SK-MEL-2 melanoma = system: SK-MEL-2 melanoma
SR leukemia = system: SR leukemia
KM12 colon = system: KM12 colon
HL-60(TB) leukemia = system: HL-60(TB) leukemia
K-562 leukemia = system: K-562 leukemia
A549 NSCLC = system: A549 NSCLC
NCI-H23 lung = system: NCI-H23 lung
HS 578T breast = system: HS 578T breast
M14 melanoma = system: M14 melanoma
MDA-N = system: MDA-N
OVCAR-5 ovarian = system: OVCAR-5 ovarian
CAKI-1 renal = system: CAKI-1 renal
OVCAR-3 ovarian = system: OVCAR-3 ovarian
NCI/ADR-RES ovarian = system: NCI/ADR-RES ovarian
HCT-15 colon = system: HCT-15 colon
HOP-62 NSCLC = system: HOP-62 NSCLC
SW-620 colon = system: SW-620 colon
MALME-3M melanoma = system: MALME-3M melanoma
UACC-62 melanoma = system: UACC-62 melanoma

CC(=O)OCC1OC(OC2CC3C(C)(C)C(=O)CC[C@]3(C)C3CC[C@]45C[C@]4(CCC5[C@@H](C)CC(O)C(O)C(C)(C)O)[C@]23C)C(O)C(O)C1O (stereo not given in full)
TGI (CCRF-CEM leukemia): 16.7 µM | TGI (SK-MEL-2 melanoma): 17.1 µM | TGI (SR leukemia): 16.9 µM | TGI (KM12 colon): 19.1 µM | TGI (HL-60(TB) leukemia): 5.05 µM | TGI (K-562 leukemia): 21.7 µM | TGI (A549 NSCLC): 31.6 µM | TGI (NCI-H23 lung): 32.7 µM | TGI (HS 578T breast): 24.5 µM | TGI (M14 melanoma): 22.2 µM | TGI (MDA-N): 22.7 µM | TGI (OVCAR-5 ovarian): 30.8 µM | TGI (CAKI-1 renal): 31.1 µM | TGI (OVCAR-3 ovarian): 25.4 µM | TGI (NCI/ADR-RES ovarian): 32.8 µM | TGI (HCT-15 colon): 31.4 µM | TGI (HOP-62 NSCLC): 33.8 µM | TGI (SW-620 colon): 26 µM | TGI (MALME-3M melanoma): 27.5 µM | TGI (UACC-62 melanoma): 22.5 µM

COc1cc(CNC(=O)CCCCCCCCCCSSCCCCCCCCCCC(=O)NCc2ccc(O)c(OC)c2)ccc1O
TGI (CCRF-CEM leukemia): > 10 µM | TGI (SK-MEL-2 melanoma): > 10 µM | TGI (SR leukemia): > 10 µM | TGI (KM12 colon): > 10 µM | TGI (HL-60(TB) leukemia): > 10 µM | TGI (K-562 leukemia): > 10 µM | TGI (A549 NSCLC): > 10 µM | TGI (NCI-H23 lung): > 10 µM | TGI (HS 578T breast): > 10 µM | TGI (M14 melanoma): > 10 µM | TGI (MDA-N): > 10 µM | TGI (OVCAR-5 ovarian): > 10 µM | TGI (CAKI-1 renal): > 10 µM | TGI (OVCAR-3 ovarian): > 10 µM | TGI (NCI/ADR-RES ovarian): > 10 µM | TGI (HCT-15 colon): > 10 µM | TGI (HOP-62 NSCLC): > 10 µM | TGI (SW-620 colon): > 10 µM | TGI (MALME-3M melanoma): > 10 µM | TGI (UACC-62 melanoma): > 10 µM

CN(C)C1COC2Cc3ccccc3C1O2 (stereo not given)
TGI (CCRF-CEM leukemia): > 100 µM | TGI (SK-MEL-2 melanoma): > 100 µM | TGI (SR leukemia): > 100 µM | TGI (KM12 colon): > 100 µM | TGI (HL-60(TB) leukemia): > 100 µM | TGI (K-562 leukemia): > 100 µM | TGI (A549 NSCLC): > 100 µM | TGI (NCI-H23 lung): > 100 µM | TGI (HS 578T breast): > 100 µM | TGI (M14 melanoma): > 100 µM | TGI (MDA-N): > 100 µM | TGI (OVCAR-5 ovarian): > 100 µM | TGI (CAKI-1 renal): > 100 µM | TGI (OVCAR-3 ovarian): > 100 µM | TGI (NCI/ADR-RES ovarian): > 100 µM | TGI (HCT-15 colon): > 100 µM | TGI (HOP-62 NSCLC): > 100 µM | TGI (SW-620 colon): > 100 µM | TGI (MALME-3M melanoma): > 100 µM | TGI (UACC-62 melanoma): > 100 µM

CN(CCNC(=O)c1cc(-c2ccccc2)nc2ccccc12)CCNC(=O)c1cc(-c2ccccc2)nc2ccccc12
TGI (CCRF-CEM leukemia): > 100 µM | TGI (SK-MEL-2 melanoma): 24.9 µM | TGI (SR leukemia): 7.63 µM | TGI (KM12 colon): > 40.5 µM | TGI (HL-60(TB) leukemia): 24.9 µM | TGI (K-562 leukemia): > 36.7 µM | TGI (A549 NSCLC): > 100 µM | TGI (NCI-H23 lung): > 100 µM | TGI (HS 578T breast): 99.4 µM | TGI (M14 melanoma): 4.66 µM | TGI (MDA-N): 32.2 µM | TGI (OVCAR-5 ovarian): > 55.7 µM | TGI (CAKI-1 renal): > 100 µM | TGI (OVCAR-3 ovarian): > 100 µM | TGI (NCI/ADR-RES ovarian): > 100 µM | TGI (HCT-15 colon): > 100 µM | TGI (HOP-62 NSCLC): > 100 µM | TGI (SW-620 colon): 24.9 µM | TGI (MALME-3M melanoma): 4.09 µM | TGI (UACC-62 melanoma): 39.5 µM

CN(C)CC1CN(C(=O)Nc2ccccc2)C(=N)O1 (stereo not given)
TGI (CCRF-CEM leukemia): > 100 µM | TGI (SK-MEL-2 melanoma): > 100 µM | TGI (SR leukemia): > 100 µM | TGI (KM12 colon): > 100 µM | TGI (HL-60(TB) leukemia): > 100 µM | TGI (K-562 leukemia): > 100 µM | TGI (A549 NSCLC): > 100 µM | TGI (NCI-H23 lung): > 100 µM | TGI (HS 578T breast): > 100 µM | TGI (M14 melanoma): > 100 µM | TGI (MDA-N): > 100 µM | TGI (OVCAR-5 ovarian): > 100 µM | TGI (CAKI-1 renal): > 100 µM | TGI (OVCAR-3 ovarian): > 100 µM | TGI (NCI/ADR-RES ovarian): > 100 µM | TGI (HCT-15 colon): > 100 µM | TGI (HOP-62 NSCLC): > 100 µM | TGI (SW-620 colon): > 100 µM | TGI (MALME-3M melanoma): > 100 µM | TGI (UACC-62 melanoma): > 100 µM

Cc1ccc(S(=O)(=O)N/N=C2/CC[C@H](C(C)(C)C)C[C@@H]2C)cc1
TGI (CCRF-CEM leukemia): 38.8 µM | TGI (SK-MEL-2 melanoma): 32.4 µM | TGI (SR leukemia): > 100 µM | TGI (KM12 colon): 49.7 µM | TGI (HL-60(TB) leukemia): > 100 µM | TGI (K-562 leukemia): 42.1 µM | TGI (A549 NSCLC): 33.4 µM | TGI (NCI-H23 lung): 36.8 µM | TGI (HS 578T breast): 45.1 µM | TGI (M14 melanoma): 26.6 µM | TGI (MDA-N): 34.3 µM | TGI (OVCAR-5 ovarian): 32.5 µM | TGI (CAKI-1 renal): 26.3 µM | TGI (OVCAR-3 ovarian): 25.2 µM | TGI (NCI/ADR-RES ovarian): 31.2 µM | TGI (HCT-15 colon): 32.7 µM | TGI (HOP-62 NSCLC): 26.9 µM | TGI (SW-620 colon): 50.7 µM | TGI (MALME-3M melanoma): 29.8 µM | TGI (UACC-62 melanoma): 31.4 µM

Nc1nc(Cl)cc(NCC2(CO)CC(Cc3ccccc3)C2)n1 (stereo not given)
TGI (CCRF-CEM leukemia): > 100 µM | TGI (SK-MEL-2 melanoma): > 72.5 µM | TGI (SR leukemia): > 56.1 µM | TGI (KM12 colon): > 100 µM | TGI (HL-60(TB) leukemia): > 46.4 µM | TGI (K-562 leukemia): > 81.6 µM | TGI (A549 NSCLC): > 100 µM | TGI (NCI-H23 lung): > 100 µM | TGI (HS 578T breast): > 100 µM | TGI (M14 melanoma): 37.1 µM | TGI (MDA-N): > 86.9 µM | TGI (OVCAR-5 ovarian): > 100 µM | TGI (CAKI-1 renal): > 100 µM | TGI (OVCAR-3 ovarian): > 100 µM | TGI (NCI/ADR-RES ovarian): 65.5 µM | TGI (HCT-15 colon): > 100 µM | TGI (HOP-62 NSCLC): > 100 µM | TGI (SW-620 colon): > 100 µM | TGI (MALME-3M melanoma): > 100 µM | TGI (UACC-62 melanoma): > 100 µM
